Laboratory results taken from patent US20090088323A1, “Compositions with cyclopropenes and adjuvants” (priority 2004, published 2009).

Columns and labels:
[1] = system: Tomatoes (Rutgers 39 Variety); assay: Tomato epinasty test (foliar spray to run off, then ethylene exposure); assay type: in vivo
Experimental: Tomato epinasty tests were performed as follows:
Two seeds were place in each pot. Plants that had expanded first true leaves and were between 3 and 5 inches high were used for the tomato epinasty test.
To conduct the assay, the plants were sprayed-to run off with the test 1-MCP foliar spray and allowed to dry for 4 hours in sunlight These operations were performed in a ventilated area away from the plants growing in the greenhouse so there would not be any unintended treatment to growing plants destined for later experiments.
(§1) The 1-MCP treated plants and both treated and untreated controls were placed into an SLX controlled-atmosphere shipping box and sealed. To the box, ethylene was injected through a septum, which gave a concentration of 14 ppm. The plants were held sealed for 12-14 hours in the dark with ethylene in the atmosphere. At the end of ethylene treatment, the box was opened and scored for epinasty. Scoring for epinasty was accomplished by using the following scoring system for each pot. • 1. 0% no epinasty (100% control) • 2. 20% A couple leaves show some drooping (80% control) • 3. 50% Plants show 50% of full response. Not all leaves need to show effect. (50% control) • 4. 80% Almost all leaves drooping and some show underside of leaf exposed on top. (20% control) • 5. 100% Leaves completely drooping and the underside of the leaf exposed from above. (0% control)
The score of each pot is recorded. The average of 6 or 8 pots is averaged to get a score. The percentage improvement is calculated by interpolating the percentage improvement from the control water (i.e., no additives) 1-MCP treatment.
Tomato epinasty tests were conducted using a formulation that included water, a 1-MCP α-CD complex, and sodium salt of EDTA. […] The amount of sodium salt of EDTA in each formulation was 100 ppm. In some formulations, further ingredients were included, as described in the examples below.
Tomato epinasty tests were conducted using a formulation that included water; a 1-MCP α-CD complex that contained 0. […] The amount of 1-MCP α-CD complex was chosen so that the spray formulation had 1.2 ppm of 1-MCP. The amount of sodium salt of EDTA was kept at 50 ppm in the liquid. Also included in the spray formulations were various silicone oils (0.1% by weight based on the weight of the spray).
The amount of 1-MCP α-CD complex was chosen so that the spray formulation had 1.2 ppm of 1-MCP. The amount of sodium salt of EDTA was kept at 50 ppm. Also included in the spray formulations were various silicone oils at 0.1% by weight based on the weight of the spray formulation and sodium dioctylsufosuccinate surfactant at 0.05% by weight based on the weight of the spray formulation.

[2] = system: Tomatoes (Rutgers 39 Variety); assay: Tomato epinasty test, plants sprayed in spray hood with motorized track sprayer; assay type: in vivo; settings: 1-MCP spray rate 20 grams/hectare, no adjuvant
Experimental: Tomatoes (Rutgers 39 Variety Harris Seeds No 885 Lot 37729-A3) were grown in 2 ½″ square pots filled with a commercial potting mix. Two seeds were place in each pot. Plants that had expanded first true leaves and were between 3 and 5 inches high were used for the tomato epinasty test.
as §1
The score of each pot is recorded. The average of 6 or 8 pots is averaged to get a score. The percentage improvement is calculated by interpolating the percentage improvement from the control water (i.e., no additives) 1-MCP treatment. […]

CC1=CC1 [1-MCP, 1-methylcyclopropene]
% Control of Epinasty ([1]; 1.2 ppm 1-MCP, silicone oil 0.1 weight % / sodium dioctylsulfosuccinate 0.05 weight % (0 for control), 50 ppm EDTA sodium salt): 8%
% Control of Epinasty ([1]; 1.2 ppm 1-MCP, silicone oil 0.1 weight % in spray (0 for control), 50 ppm EDTA sodium salt): 8%
% Control of Epinasty ([1]; 70 ppb 1-MCP (as α-CD complex), no adjuvants, 100 ppm EDTA sodium salt, 14 ppm ethylene 12-14 h): 10%
% Control of Epinasty ([1]; 140 ppb 1-MCP (as α-CD complex), no adjuvants, 100 ppm EDTA sodium salt): 15%
% Control of Epinasty ([1]; 280 ppb 1-MCP (as α-CD complex), no adjuvants, 100 ppm EDTA sodium salt): 35%
% Control of Epinasty ([1]; 1400 ppb 1-MCP (as α-CD complex), no adjuvants, 100 ppm EDTA sodium salt): 85%
% Control of Epinasty [2]: 26%
